Legend:
cytochrome P450 enzymes = test: first pass metabolism / inactivation in the intestinal hepatic region; format: in vivo; settings: inactivation by cytochrome P450 enzymes in the intestinal hepatic region
oral bioavailability = format: in vivo
[1] = target: T1, glucocorticosteroid receptors (Homo sapiens, UniProt P04150); test: affinity for and activity at glucocorticosteroid receptors; format: binding; settings: compared to other very potent topical steroids
T1 sequence (P04150 1-777): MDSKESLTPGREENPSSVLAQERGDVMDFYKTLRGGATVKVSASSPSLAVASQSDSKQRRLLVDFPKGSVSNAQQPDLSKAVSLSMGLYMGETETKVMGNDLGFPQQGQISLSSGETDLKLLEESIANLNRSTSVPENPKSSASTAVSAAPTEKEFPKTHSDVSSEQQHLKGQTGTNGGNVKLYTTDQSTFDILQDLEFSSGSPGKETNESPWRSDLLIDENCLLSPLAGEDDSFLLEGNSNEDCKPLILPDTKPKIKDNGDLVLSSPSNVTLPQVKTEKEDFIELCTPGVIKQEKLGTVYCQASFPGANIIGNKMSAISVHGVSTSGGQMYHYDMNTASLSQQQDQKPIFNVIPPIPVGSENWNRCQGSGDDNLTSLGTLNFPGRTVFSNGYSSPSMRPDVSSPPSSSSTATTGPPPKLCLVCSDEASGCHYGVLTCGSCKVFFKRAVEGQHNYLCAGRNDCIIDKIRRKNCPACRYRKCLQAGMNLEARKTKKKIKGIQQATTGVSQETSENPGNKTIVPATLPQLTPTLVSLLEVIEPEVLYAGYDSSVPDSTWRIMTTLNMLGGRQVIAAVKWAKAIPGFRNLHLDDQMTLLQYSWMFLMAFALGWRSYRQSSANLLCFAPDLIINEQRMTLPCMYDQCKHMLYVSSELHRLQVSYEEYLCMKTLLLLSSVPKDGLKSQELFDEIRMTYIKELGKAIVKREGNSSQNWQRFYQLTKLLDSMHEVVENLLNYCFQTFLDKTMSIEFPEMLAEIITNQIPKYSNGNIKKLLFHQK

[2] = water solubility for dissolution distribution in intestinal fluids; format: physicochemical
[3] = treatment of irritable bowel syndrome (IBS); settings: in vivo
Description: For testing the effect of rofleponide, its esters and salts in post-infectious irritable bowel syndrome the intestinal neuromuscular dysfunction after acute nematode infection in mice are measured in accordance with the method described in Gasteroenterology 1997, vol. 133, p.1224-1232.

CCC[C@@H]1O[C@@H]2C[C@H]3[C@@H]4C[C@H](F)C5=CC(=O)CC[C@]5(C)[C@@]4(F)[C@@H](O)C[C@]3(C)[C@]2(C(=O)CO)O1 [rofleponide, (22R)-16-alpha, 17 alpha-butylidenedioxy-6-alpha, 9alpha-difluoro-11beta,21-dihydroxypregn-4-ene-3,20-dione]
first pass metabolism (cytochrome P450 enzymes): at least 99% | oral bioavailability (oral bioavailability): ≤ 1% | affinity for and activity at glucocorticosteroid receptors [1]: very high | water solubility [2]: sufficient | effect in the treatment of irritable bowel syndrome (IBS) [3]: effective
